Laboratory results taken from publication PMC5855550, “Pharmacokinetic Study of Bioactive Flavonoids in the Traditional Japanese Medicine Keigairengyoto Exerting Antibacterial Effects against Staphylococcus aureus” (International Journal of Molecular Sciences, 2018).

Tests used:
[1] = in vivo
Protocol: To specifically deconjugate glucuronides, 80 μL of plasma sample was incubated with 50 μL of β-glucuronidase solution containing 200 units/mL β-glucuronidase from Escherichia coli (Sigma-Aldrich) for 2 h at 37 °C. The deconjugation reaction was stopped by adding ethyl acetate or by refrigerating the mixture considering the following procedures. This pretreated solution was injected into the two liquid chromatography–mass spectrometry with tandem mass spectrometry (LC-MS/MS) systems after pooling with an internal standard solution of niflumic acid (Sigma-Aldrich) or atropine (Wako Pure Chemical Industries, Osaka, Japan).
For quantification of apigenin, wogonin, wogonoside, hesperetin, naringenin, liquiritigenin, genistein, and luteolin in β-glucuronidase-naive (untreated) plasma, 200 µL plasma samples were pretreated by liquid-liquid extraction using ethyl acetate. The total supernatant was collected, dried, and concentrated using a centrifugal evaporator. The dried residue was then dissolved in 60 μL of the specific HPLC mobile phase used for each analytical method, and a 10 or 20 μL volume injected into the LC-MS/MS system.
For quantification of baicalin, baicalein, and berberine in untreated plasma, 80 µL of plasma was pretreated by solid-phase extraction using Oasis HLB 96-well µElution plate (Waters, Milford, MA, USA). The methanol eluates were collected, dried, and dissolved in 60 μL of the specific HPLC mobile phase. A 10 or 20 μL volume was then injected into the LC-MS/MS system.
For quantification of glycyrrhizic acid and glycyrrhetinic acid in untreated plasma, 100 µL plasma samples were pretreated by deproteinization using methanol. The supernatant was collected, dried, and concentrated using a centrifugal evaporator. The dried residue was then dissolved in 60 μL of the specific HPLC mobile phase used for the analytical method, and a 10 μL volume injected into the LC-MS/MS system.
For quantification of wogonin, wogonoside, hesperetin, naringenin, liquiritigenin, and genistein in treated plasma, the reaction solutions after deconjugation reactions were pretreated by liquid-liquid extraction. The supernatant was dissolved in 120 μL of the specific HPLC mobile phase, and a 10 or 15 μL volume injected into the LC-MS/MS system.
For quantification of apigenin, luteolin, baicalin, baicalein, and berberine in treated plasma, the reaction solutions after deconjugation were pretreated by solid-phase extraction by the method described above, and 10 or 15 μL of the solution dissolved in 50 μL of the specific HPLC mobile phase was injected into the LC-MS/MS system.
Pharmacokinetic parameters of flavonoids and glucuronide metabolites in KRT-administrated plasma with or without β-glucuronidase treatment were analyzed by noncompartmental modeling using Phoenix WinNonlin (version 6.3, Certara L.P., St. Louis, MO, USA) to determine various pharmacokinetic constants, including Cmax, tmax, t1/2, and AUC0–last. The t1/2 was […] loge2/ke, where ke is the terminal elimination rate constant determined from at least three data points on the descending linear limb.

[2] = test system: RAW264.7 cells; test: Macrophage culture assay: phagocytosis of FITC-conjugated S. aureus; type: cell-based, mouse; settings: for Phagocytosis relative change versus control / Phagocytosis MFI: IFN-γ 0.5 ng/mL; for Phagocytosis MFI: mean ± SEM of triplicates
Protocol: Cells of the mouse macrophage cell line RAW264.7 (ATCC, Manassas, VA, USA) were grown in Dulbecco’s modified Eagles medium supplemented with 10% fetal bovine serum (FBS), 4.5 g/L glucose, 2 mmol/L L-glutamine, 100 U/mL penicillin, 100 µg/mL streptomycin, and 10 mmol/L HEPES. […] After 3 days’ incubation at 37 °C, culture fluids were removed and replaced by warm medium containing 30 μg/mL FITC-conjugated S. aureus. After 30 min incubation in a 5% CO2 incubator, cells were harvested using cold PBS containing 2 mmol/L EDTA, washed, and fixed for 15 min at 4 °C with phosphate buffer containing 4% paraformaldehyde (pH 7.4). FITC-positive cells were determined using a FACSaria II flow cytometer and DIVA 8.0.1 software (Becton Dickinson, San Jose, CA, USA). Phagocytic activity is expressed as the mean fluorescence intensity (MFI) from individual cells.

[3] = molecular target: T1, β-glucuronidase (Mus musculus, UniProt P12265); test: Conversion assay of baicalin to baicalein by macrophages, macrophage lysate and skin homogenate; type: in vitro ADME; settings: baicalin 10 μmol/L; 24 h incubation; living macrophages (RAW264.7), also lysates of macrophages and skin
T1 construct: endogenous in cells; host or cells: RAW264.7 cells (live or lysate); alternatively back-skin homogenate supernatant of naive mice (tissue)
T1 sequence (P12265 23-648): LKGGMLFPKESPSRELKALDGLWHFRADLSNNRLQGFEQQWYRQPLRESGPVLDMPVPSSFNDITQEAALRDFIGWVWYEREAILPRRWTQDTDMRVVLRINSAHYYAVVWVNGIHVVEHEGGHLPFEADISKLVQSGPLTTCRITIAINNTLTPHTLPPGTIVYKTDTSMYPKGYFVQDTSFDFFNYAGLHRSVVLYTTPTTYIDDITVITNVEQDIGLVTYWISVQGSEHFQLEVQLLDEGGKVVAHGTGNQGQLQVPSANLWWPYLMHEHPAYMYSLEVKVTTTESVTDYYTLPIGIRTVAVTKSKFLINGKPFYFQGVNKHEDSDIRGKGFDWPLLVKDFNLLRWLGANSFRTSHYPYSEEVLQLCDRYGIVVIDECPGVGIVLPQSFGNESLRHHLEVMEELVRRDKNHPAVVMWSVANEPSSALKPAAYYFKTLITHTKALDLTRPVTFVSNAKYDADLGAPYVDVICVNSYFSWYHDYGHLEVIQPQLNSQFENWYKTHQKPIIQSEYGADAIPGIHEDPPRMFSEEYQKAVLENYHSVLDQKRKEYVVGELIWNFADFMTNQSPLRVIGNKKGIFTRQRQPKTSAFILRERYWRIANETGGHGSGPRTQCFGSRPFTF
Protocol: Naïve mice were sacrificed by exsanguination to obtain skin samples from the back. After shaving with an electric razor, the skin was excised and homogenized in cold PBS at 20 mg/mL. After centrifugation at 10,000× g for 20 min at 4 °C, supernatants were harvested and stored at −80 °C until use.
To examine β-glucuronidase activity in skin tissue, baicalin (final 10 μmol/L) was added as a substrate to skin homogenate in 24-well plates. Alternatively, to examine β-glucuronidase activity in macrophages, baicalin (final 10 μmol/L) was added to live RAW264.7 cells seeded at 1 × 10^5 cells/0.5 mL/well or to cell lysates in 24-well plates. After 24 h incubation in a 5% CO2 incubator, supernatants were harvested and stored at −80 °C until measurement of baicalin and baicalein by LC-MS/MS as described above.

[4] = test system: macrophage; design: method as in doi:10.24294/ti.v1.i1.31; settings: previous data; cited from earlier work
[5] = Sprague-Dawley, rat, in vivo, po
[6] = Sprague-Dawley, rat, in vivo, po, 2 g/kg
[7] = Exp. 1, 10 μmol/L, 3 days, control 155 ± 4
[8] = Exp. 2, 1 μmol/L, control 226 ± 12
[9] = Exp. 2, 3 μmol/L, control 226 ± 12
[10] = Exp. 2, 10 μmol/L, control 226 ± 12
[11] = Sprague-Dawley, rat, plasma, po, 2 g/kg

Row | AUC(0-t) [1, 6] [ng·h/mL] | Cmax [1, 6] [ng/mL] | Tmax [1, 6] [h] | Tmax [1, 11] [h] | Structure (SMILES) | phagocytosis by macrophages (result in words) ([2]; 10 μmol/L) | Phagocytosis relative change versus control ([2]; Exp. 1, 10 μmol/L) | Phagocytosis MFI [2, 7] | further results
1 | 0.843 | 0.14 | 4 | – | O=c1cc(-c2ccc(O)cc2)oc2cc(O)cc(O)c12 [Apigenin, apigenin] | enhanced | 3.3 | 507 ± 11 | Tmax [1, 5]: 10.0 h
2 | – | – | – | – | O=c1cc(-c2ccccc2)oc2cc(O)c(O)c(O)c12 [Baicalein, baicalein] | enhanced | 3.4 | 530 ± 6 | Cmax ([1]; Sprague-Dawley, rat, plasma, oral, 2 g/kg): 1320 ng/mL; Cmax ([1]; rat plasma, no β-glucuronidase treatment, KRT 2 g/kg oral, BQL for baicalein = 125 ng/mL): BQL ^#; Cmax ([1]; rat plasma, no β-glucuronidase treatment, KRT 2 g/kg oral, BQL for baicalein = 125 ng/mL, listed as baicalein): BQL; Phagocytosis relative change versus control ([2]; Exp. 2, 1 μmol/L): 1.0; Phagocytosis MFI [2, 8]: 223 ± 10; Phagocytosis relative change versus control ([2]; Exp. 2, 3 μmol/L): 2.0; Phagocytosis MFI [2, 9]: 445 ± 7; Phagocytosis relative change versus control ([2]; Exp. 2, 10 μmol/L): 3.8; Phagocytosis MFI [2, 10]: 866 ± 25
3 | 9.65 | 0.998 | 24 | – | O=c1c(-c2ccc(O)cc2)coc2cc(O)cc(O)c12 [Genistein, genistein] | enhanced | 3.4 | 525 ± 22 | plasma concentration ([1]; β-glucuronidase-treated plasma until 6 h after KRT administration, detected at 10 and 24 h): below the detection limit
4 | – | – | – | 1 | CC1(C)[C@@H](O[C@H]2O[C@H](C(=O)O)[C@@H](O)[C@H](O)[C@H]2O[C@@H]2O[C@H](C(=O)O)[C@@H](O)[C@H](O)[C@H]2O)CC[C@]2(C)[C@H]3C(=O)C=C4[C@@H]5C[C@@](C)(C(=O)O)CC[C@]5(C)CC[C@@]4(C)[C@]3(C)CC[C@@H]12 [Glycyrrhizic acid, glycyrrhizic acid] | – | – | – | Cmax [1, 11]: 2.88 ng/mL
5 | – | – | – | 4 | COc1ccc([C@@H]2CC(=O)c3c(O)cc(O)cc3O2)cc1O [Hesperetin, hesperetin] | did not | 1.2 | 193 ± 12 | AUC(0-t) [1, 11]: 2.83 ng·h/mL; Cmax [1, 11]: 0.644 ng/mL
6 | – | – | – | 4 | O=C1C[C@@H](c2ccc(O)cc2)Oc2cc(O)ccc21 [Liquiritigenin, liquiritigenin] | enhanced | 1.6 | 245 ± 4 | AUC(0-t) [1, 11]: 8.68 ng·h/mL; Cmax [1, 11]: 2.11 ng/mL
7 | 21.3 | 4.7 | 6 | – | O=c1cc(-c2ccc(O)c(O)c2)oc2cc(O)cc(O)c12 [Luteolin, luteolin] | enhanced | 2.6 | 408 ± 22 | Tmax [1, 5]: 1.00 h; t1/2 [1, 5]: 11.7 h
8 | 9.53 | 1.34 | 4 | – | O=C1C[C@@H](c2ccc(O)cc2)Oc2cc(O)cc(O)c21 [Naringenin, naringenin] | enhanced | 1.5 | 236 ± 10 | half-life [1, 6]: 181 min
9 | 71.5 | 16.3 | 4 | – | COc1c(O)cc(O)c2c(=O)cc(-c3ccccc3)oc12 [Wogonin, wogonin] | enhanced | 1.7 | 271 ± 16 | –
10 | – | 121 | 6 | – | CC1(C)[C@@H](O)CC[C@]2(C)[C@H]3C(=O)C=C4[C@@H]5C[C@@](C)(C(=O)O)CC[C@]5(C)CC[C@@]4(C)[C@]3(C)CC[C@@H]12 [glycyrrhetinic acid] | – | – | – | macrophage phagocytosis-enhancing activity [4]: no macrophage phagocytosis-enhancing activity
11 | – | – | – | 6 | COc1c(O[C@@H]2O[C@H](C(=O)O)[C@@H](O)[C@H](O)[C@H]2O)cc(O)c2c(=O)cc(-c3ccccc3)oc12 [wogonoside, wogonin 7-O-glucuronide] | – | – | – | AUC(0-t) [1, 11]: 3400 ng·h/mL

Row | Structure (SMILES) | AUC(0-t) [1, 6] [ng·h/mL] | Cmax [1, 6] [ng/mL] | Tmax [1, 6] [h] | Tmax [1, 11] [h] | phagocytosis by macrophages (result in words) ([2]; 10 μmol/L) | Phagocytosis relative change versus control ([2]; Exp. 1, 10 μmol/L) | Phagocytosis MFI [2, 7] | further results
12 | O=C(O)[C@H]1O[C@@H](Oc2cc3oc(-c4ccccc4)cc(=O)c3c(O)c2O)[C@H](O)[C@@H](O)[C@@H]1O [baicalin, baicalein 7-O-glucuronide] | 10100 | 1020 | 4 | – | promoted | – | – | half-life [1, 6]: 212 min; Phagocytosis relative change versus control ([2]; Exp. 2, 1 μmol/L): 1.1; Phagocytosis MFI [2, 8]: 238 ± 9; Phagocytosis relative change versus control ([2]; Exp. 2, 3 μmol/L): 1.2; Phagocytosis MFI [2, 9]: 269 ± 10; Phagocytosis relative change versus control ([2]; Exp. 2, 10 μmol/L): 2.4; Phagocytosis MFI [2, 10]: 531 ± 19; deconjugation of baicalin to aglycone baicalein [3]: almost completely deconjugated to baicalein
